pIC50: −log10 of the molar value.
Molecular target: JAK1 (Homo sapiens (Human), UniProt P23458)
Assay: Jak biochemical HTRF assay, JAK1
Details: recombinant purified GST-tagged catalytic domain; HTRF format; [ATP] 31.8 μM
From the text: (§1) Jak Biochemical HTRF Assay Protocol
(§2) Subsequent reagent additions employed an Agilent Bravo.

Sequence of JAK1 (P23458 875-1153): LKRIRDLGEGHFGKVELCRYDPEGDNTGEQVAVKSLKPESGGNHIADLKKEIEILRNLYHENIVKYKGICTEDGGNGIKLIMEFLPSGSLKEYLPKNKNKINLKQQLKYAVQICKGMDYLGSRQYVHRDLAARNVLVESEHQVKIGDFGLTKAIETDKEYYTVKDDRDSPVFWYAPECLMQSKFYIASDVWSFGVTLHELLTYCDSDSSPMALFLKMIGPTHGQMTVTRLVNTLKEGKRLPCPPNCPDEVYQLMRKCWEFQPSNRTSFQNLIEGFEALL

pIC50	SMILES
7.77	Cn1ccc(CN2CC[C@@H](n3cc(C(N)=O)c(Nc4ccc(F)cc4)n3)[C@H](C#N)C2)n1 (racemic) [Example 6-26, 1-{(3R,4R and 3S,4S)-3-cyano-1-[(1-methyl-1H-pyrazol-3-yl)methyl]piperidin-4-yl}-3-[(4-fluorophenyl)amino]-1H-pyrazole-4-carboxamide]
6.45	N#C[C@@H]1CN(C(=O)OC2CCOCC2)CC[C@@H]1n1cc(C(N)=O)c(Nc2ccc(F)cc2)n1 (racemic) [Example 5-60, tetrahydro-2H-pyran-4-yl (3R,4S and 3S,4R)-4-{4-carbamoyl-3-[(4-fluorophenyl)amino]-1H-pyrazol-1-yl}-3-cyanopiperidine-1-carboxylate]
8.52	COC(C)(C)c1ccc(Nc2nn([C@H]3COCC[C@@H]3C#N)cc2C(N)=O)cc1 (single isomer, unassigned) [Example 9-23, 1-[(3R,4S or 3S,4R)-4-cyanotetrahydro-2H-pyran-3-yl]-3-{[4-(1-methoxy-1-methylethyl)phenyl]amino}-1H-pyrazole-4-carboxamide]

Molecular target: JAK2 (Homo sapiens (Human), UniProt O60674)
Sequence (O60674 849-1124): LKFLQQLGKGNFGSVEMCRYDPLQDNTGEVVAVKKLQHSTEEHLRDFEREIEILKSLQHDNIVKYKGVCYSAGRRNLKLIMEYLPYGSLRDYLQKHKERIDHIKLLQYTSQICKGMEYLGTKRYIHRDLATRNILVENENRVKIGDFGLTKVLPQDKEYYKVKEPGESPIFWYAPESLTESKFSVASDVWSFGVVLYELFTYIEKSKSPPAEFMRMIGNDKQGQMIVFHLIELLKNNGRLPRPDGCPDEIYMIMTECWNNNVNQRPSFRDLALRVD
Assay: Jak biochemical HTRF assay, JAK2
Details: recombinant purified GST-tagged catalytic domain; HTRF format; [ATP] 8.5 μM
From the text: as §1, §2

SMILES	pIC50
CC(C)(C)OC(=O)N1CCC(n2cc(C(N)=O)c(Nc3ccc(F)cc3)n2)[C@@H](C#N)C1 (mixture of isomers) [Example 2-3, (3S,4S and 3R,4R)-tert-butyl 4-(4-carbamoyl-3-((4-fluorophenyl)amino)-1H-pyrazol-1-yl)-3-cyanopiperidine-1-carboxylate]	6.44
CC(C)COC(=O)N1CC[C@H](n2cc(C(N)=O)c(Nc3ccc(F)cc3)n2)[C@H](C#N)C1 (racemic) [Example 5-56, 2-methylpropyl (3R,4S and 3S,4R)-4-{4-carbamoyl-3-[(4-fluorophenyl)amino]-1H-pyrazol-1-yl}-3-cyanopiperidine-1-carboxylate]	< 5.83
CC1(COC(=O)N2CC[C@@H](n3cc(C(N)=O)c(Nc4ccc(F)cc4)n3)[C@H](C#N)C2)COC1 (racemic) [Example 5-33, (3-methyloxetan-3-yl)methyl (3R,4R and 3S,4S)-4-{4-carbamoyl-3-[(4-fluorophenyl)amino]-1H-pyrazol-1-yl}-3-cyanopiperidine-1-carboxylate]	6.38
CC(C)(C#N)COC(=O)N1CC[C@@H](C#N)C(n2cc(C(N)=O)c(Nc3ccc(F)cc3)n2)C1 (mixture of isomers) [Example 5-69, 2-Cyano-2-methylpropyl (3S,4R and 3R,4S)-3-{4-carbamoyl-3-[(4-fluorophenyl)amino]-1H-pyrazol-1-yl}-4-cyanopiperidine-1-carboxylate]	7.39
CC(C)COC(=O)N1CC[C@@H](n2cc(C(N)=O)c(Nc3ccc(F)cc3)n2)[C@H](C#N)C1 (racemic) [Example 5-10, 2-methylpropyl (3R,4R and 3S,4S)-4-{4-carbamoyl-3-[(4-fluorophenyl)amino]-1H-pyrazol-1-yl}-3-cyanopiperidine-1-carboxylate]	6.12
COCCOC(=O)N1CC[C@@H](C#N)C(n2cc(C(N)=O)c(Nc3ccc(F)cc3)n2)C1 (mixture of isomers) [Example 5-83, 2-methoxyethyl (3S,4R and 3R,4S)-3-{4-carbamoyl-3-[(4-fluorophenyl)amino]-1H-pyrazol-1-yl}-4-cyanopiperidine-1-carboxylate]	6.92
N#C[C@@H]1CN(C(=O)OCc2ccccc2)CC[C@@H]1n1cc(C(N)=O)c(Nc2ccc(F)cc2)n1 (racemic) [Example 5-52, benzyl (3R,4S and 3S,4R)-4-{4-carbamoyl-3-[(4-fluorophenyl)amino]-1H-pyrazol-1-yl}-3-cyanopiperidine-1-carboxylate]	< 5.83
CN1CCN(CCOC(=O)N2CC[C@@H](n3cc(C(N)=O)c(Nc4ccc(F)cc4)n3)[C@H](C#N)C2)CC1 (racemic) [Example 5-24, 2-(4-methylpiperazin-1-yl)ethyl (3R,4R and 3S,4S)-4-{4-carbamoyl-3-[(4-fluorophenyl)amino]-1H-pyrazol-1-yl}-3-cyanopiperidine-1-carboxylate]	5.97
CC1(COC(=O)N2CC[C@@H](C#N)C(n3cc(C(N)=O)c(Nc4ccc(F)cc4)n3)C2)COC1 (mixture of isomers) [Example 5-90, (3-methyloxetan-3-yl)methyl (3S,4R and 3R,4S)-3-{4-carbamoyl-3-[(4-fluorophenyl)amino]-1H-pyrazol-1-yl}-4-cyanopiperidine-1-carboxylate]	7.02
N#C[C@@H]1CN(C(=O)OCc2ccccc2)CC[C@H]1n1cc(C(N)=O)c(Nc2ccc(F)cc2)n1 (racemic) [Example 5-12, benzyl (3R,4R and 3S,4S)-4-{4-carbamoyl-3-[(4-fluorophenyl)amino]-1H-pyrazol-1-yl}-3-cyanopiperidine-1-carboxylate]	6.43
C#CCCOC(=O)N1CC[C@@H](n2cc(C(N)=O)c(Nc3ccc(F)cc3)n2)[C@H](C#N)C1 (racemic) [Example 5-34, but-3-yn-1-yl (3R,4R and 3S,4S)-4-{4-carbamoyl-3-[(4-fluorophenyl)amino]-1H-pyrazol-1-yl}-3-cyanopiperidine-1-carboxylate]	6.81
N#C[C@@H]1CN(C(=O)OC2CCCCC2)CC[C@@H]1n1cc(C(N)=O)c(Nc2ccc(F)cc2)n1 (racemic) [Example 5-61, cyclohexyl (3R,4S and 3S,4R)-4-{4-carbamoyl-3-[(4-fluorophenyl)amino]-1H-pyrazol-1-yl}-3-cyanopiperidine-1-carboxylate]	< 5.83
N#C[C@@H]1CCN(C(=O)OCCF)CC1n1cc(C(N)=O)c(Nc2ccc(F)cc2)n1 (mixture of isomers) [Example 5-79, 2-fluoroethyl (3S,4R and 3R,4S)-3-{4-carbamoyl-3-[(4-fluorophenyl)amino]-1H-pyrazol-1-yl}-4-cyanopiperidine-1-carboxylate]	7.25

Results, then the molecule that gave them:

pIC50	SMILES
9.70	CN(C)C(=O)c1ccc(Nc2nn([C@H]3COCC[C@@H]3C#N)cc2C(N)=O)cc1 (single isomer, unassigned) [Example 9-34, 1-[(3R,4S or 3S,4R)-4-cyanotetrahydro-2H-pyran-3-yl]-3-{[4-(dimethylcarbamoyl)phenyl]amino}-1H-pyrazole-4-carboxamide]
7.33	N#C[C@@H]1CN(Cc2ncco2)CC[C@H]1n1cc(C(N)=O)c(Nc2ccc(F)cc2)n1 (racemic) [Example 6-29, 1-[(3R,4R and 3S,4S)-3-cyano-1-(1,3-oxazol-2-ylmethyl)piperidin-4-yl]-3-[(4-fluorophenyl)amino]-1H-pyrazole-4-carboxamide]
7.62	N#C[C@@H]1CS(=O)(=O)CC1n1cc(C(N)=O)c(Nc2ccc(F)cc2)n1 (mixture of isomers) [Example 8-6, 1-((3S,4R and 3R,4S)-4-cyano-1,1-dioxidotetrahydrothiophen-3-yl)-3-((4-fluorophenyl)amino)-1H-pyrazole-4-carboxamide]
8.52	N#C[C@@H]1CCOC[C@H]1n1cc(C(N)=O)c(Nc2ccc(C(F)F)nc2)n1 (single isomer, unassigned) [Example 9-33, 1-[(3S,4R or 3R,4S)-4-cyanotetrahydro-2H-pyran-3-yl]-3-{[6-(difluoromethyl)pyridin-3-yl]amino}-1H-pyrazole-4-carboxamide]
7.33	N#C[C@@H]1CCN(Cc2cc(F)ccn2)C[C@H]1n1cc(C(N)=O)c(Nc2ccc(F)cc2)n1 (racemic) [Example 6-7, 1-{(3S,4R and 3R,4S)-4-cyano-1-[(4-fluoropyridin-2-yl)methyl]piperidin-3-yl}-3-[(4-fluorophenyl)amino]-1H-pyrazole-4-carboxamide]
6.87	N#C[C@H]1CCOC[C@@H]1n1cc(C(N)=O)c(Nc2ccc(C(F)F)nc2)n1 (single isomer, unassigned) [Example 9-32, 1-[(3R,4S or 3S,4R)-4-cyanotetrahydro-2H-pyran-3-yl]-3-{[6-(difluoromethyl)pyridin-3-yl]amino}-1H-pyrazole-4-carboxamide]
7.48	N#C[C@@H]1CCN(CC2CCC2)C[C@H]1n1cc(C(N)=O)c(Nc2ccc(F)cc2)n1 (racemic) [Example 6-12, 1-[(3S,4R and 3R,4S)-4-cyano-1-(cyclobutylmethyl)piperidin-3-yl]-3-[(4-fluorophenyl)amino]-1H-pyrazole-4-carboxamide]
7.82	N#C[C@@H]1CS(=O)(=O)CC1n1cc(C(N)=O)c(Nc2ccc(S(=O)(=O)C(F)(F)F)cc2)n1 (mixture of isomers) [Example 8-7, 1-((3S,4R and 3R,4S)-4-cyano-1,1-dioxidotetrahydrothiophen-3-yl)-3-((4-((trifluoromethyl)sulfonyl)phenyl)amino)-1H-pyrazole-4-carboxamide]
8.40	N#C[C@@H]1CCOC[C@H]1n1cc(C(N)=O)c(Nc2ccc(Cl)nc2)n1 (single isomer, unassigned) [Example 9-28, 3-[(6-chloropyridin-3-yl)amino]-1-[(3S,4R or 3R,4S)-4-cyanotetrahydro-2H-pyran-3-yl]-1H-pyrazole-4-carboxamide]

Same assay, conditions: recombinant purified GST-tagged catalytic domain; HTRF format; [ATP] […]

pIC50	SMILES
7.80	N#C[C@@H]1CS(=O)(=O)C[C@H]1n1cc(C(N)=O)c(Nc2ccc(F)cc2)n1 (single isomer, unassigned) [Example 12-2, 1-((3S,4R or 3R,4S)-4-Cyano-1,1-dioxidotetrahydrothiophen-3-yl)-3-((4-fluorophenyl)amino)-1H-pyrazole-4-carboxamide]
< 5.83	N#C[C@@H]1CS(=O)(=O)C[C@H]1n1cc(C(N)=O)c(Nc2ccc(F)cc2)n1 (single isomer, unassigned) [Example 12-1, 1-((3S,4R or 3R,4S)-4-Cyano-1,1-dioxidotetrahydrothiophen-3-yl)-3-((4-fluorophenyl)amino)-1H-pyrazole-4-carboxamide]

SMILES	pIC50
N#C[C@@H]1CN(C(=O)OC2CCCCC2)CC[C@H]1n1cc(C(N)=O)c(Nc2ccc(F)cc2)n1 (mixture of isomers) [Example 5-17, cyclohexyl (3R,4R and 3S,4S)-4-{4-carbamoyl-3-[(4-fluorophenyl)amino]-1H-pyrazol-1-yl}-3-cyanopiperidine-1-carboxylate]	5.91

Source: patent US9394282B2, “Pyrazole carboxamides as Janus kinase inhibitors” (Merck Sharp & Dohme Corp., priority 2011, dated 2016)
